Assay [1] deals with T1, PAS domain-containing serine/threonine-protein kinase (Homo sapiens, UniProt Q96RG2). Put plainly: Inhibition of purified full-length human PASK expressed in insect cells using MBP protein substrate incubated for 10 mins before ATP addition and measured after 1 hr by kinase-Glo luminescent kinase assay.
For assay [2], the target named is T1, PAS domain-containing serine/threonine-protein kinase. Put plainly: Inhibition of purified human PASK kinase domain expressed in insect cells using MBP protein substrate incubated for 10 mins before ATP addition and measured after 1 hr by kinase-Glo luminescent kinase assay.
Assay [3] deals with Casein kinase II subunit alpha' (Homo sapiens, UniProt P19784). Briefly: Inhibition of GST-tagged full-length purified human CK2a2 using RRRDDDSDDD substrate incubated for 120 mins in presence of [33P]ATP by scintillation counting based biochemical assay.
For assay [4], the target named is T1, PAS domain-containing serine/threonine-protein kinase. Briefly: Inhibition of N-terminal GST-tagged human recombinant PASK kinase domain (879 to 1323 residues) expressed in insect cells using MBP protein substrate incubated for 120 mins in presence of [33P]ATP by scintillation counting based radiochemical assay.
For assay [5] the target is unchanged. Briefly: Inhibition of human recombinant PASK using Ulight-peptide substrate incubated for 2 hrs by TR-FRET assay.

Casein kinase II subunit alpha', sequence (P19784 whole entry, the tested form may be a part): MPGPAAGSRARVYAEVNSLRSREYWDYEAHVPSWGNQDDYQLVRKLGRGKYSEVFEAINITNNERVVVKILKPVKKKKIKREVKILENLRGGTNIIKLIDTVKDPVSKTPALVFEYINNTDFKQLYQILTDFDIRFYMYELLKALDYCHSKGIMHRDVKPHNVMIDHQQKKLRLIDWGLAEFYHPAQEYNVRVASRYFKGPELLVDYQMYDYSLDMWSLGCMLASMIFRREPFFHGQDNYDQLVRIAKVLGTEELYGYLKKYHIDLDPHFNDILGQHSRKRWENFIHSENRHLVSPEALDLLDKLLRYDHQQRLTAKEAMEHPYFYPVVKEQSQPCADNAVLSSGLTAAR
T1 sequence (Q96RG2 whole entry, the tested form may be a part): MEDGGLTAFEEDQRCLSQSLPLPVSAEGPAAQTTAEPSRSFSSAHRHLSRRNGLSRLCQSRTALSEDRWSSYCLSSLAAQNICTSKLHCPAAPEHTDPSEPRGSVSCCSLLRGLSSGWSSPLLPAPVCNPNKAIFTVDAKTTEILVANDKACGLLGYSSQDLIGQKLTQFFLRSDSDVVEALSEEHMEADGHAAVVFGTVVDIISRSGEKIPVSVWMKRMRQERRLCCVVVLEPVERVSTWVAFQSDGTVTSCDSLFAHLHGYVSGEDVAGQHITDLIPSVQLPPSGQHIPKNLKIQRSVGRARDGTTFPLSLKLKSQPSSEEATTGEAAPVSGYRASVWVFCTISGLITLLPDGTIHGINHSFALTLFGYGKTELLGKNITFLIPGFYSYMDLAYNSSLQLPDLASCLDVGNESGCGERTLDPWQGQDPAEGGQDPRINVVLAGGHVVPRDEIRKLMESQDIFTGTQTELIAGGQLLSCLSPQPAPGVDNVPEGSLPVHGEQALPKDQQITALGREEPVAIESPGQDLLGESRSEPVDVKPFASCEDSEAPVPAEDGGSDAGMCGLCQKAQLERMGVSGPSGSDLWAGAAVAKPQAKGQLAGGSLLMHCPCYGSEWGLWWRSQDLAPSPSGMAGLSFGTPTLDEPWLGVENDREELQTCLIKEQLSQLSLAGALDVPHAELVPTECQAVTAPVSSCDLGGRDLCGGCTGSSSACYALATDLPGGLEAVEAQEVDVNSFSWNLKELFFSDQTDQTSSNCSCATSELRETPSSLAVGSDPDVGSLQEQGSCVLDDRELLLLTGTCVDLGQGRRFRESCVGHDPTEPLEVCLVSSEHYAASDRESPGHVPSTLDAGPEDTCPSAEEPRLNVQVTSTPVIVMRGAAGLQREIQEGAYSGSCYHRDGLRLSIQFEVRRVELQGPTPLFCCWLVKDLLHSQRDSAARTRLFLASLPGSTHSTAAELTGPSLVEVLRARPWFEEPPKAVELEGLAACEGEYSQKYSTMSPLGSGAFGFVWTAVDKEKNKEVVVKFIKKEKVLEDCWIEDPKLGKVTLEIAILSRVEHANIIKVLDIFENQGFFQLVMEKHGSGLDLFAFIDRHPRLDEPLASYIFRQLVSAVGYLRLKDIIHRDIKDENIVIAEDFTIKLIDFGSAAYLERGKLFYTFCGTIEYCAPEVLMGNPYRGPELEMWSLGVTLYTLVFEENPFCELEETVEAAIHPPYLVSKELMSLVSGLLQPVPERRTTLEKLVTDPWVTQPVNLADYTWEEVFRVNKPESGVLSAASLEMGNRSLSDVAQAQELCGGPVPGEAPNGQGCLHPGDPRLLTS

As for `Cc1nn2c(=O)cc(-c3ccc(Cl)cc3)[nH]c2c1-c1ccccc1`, the concentration for half-maximal inhibition (IC50) in assay [1] and in assay [2] was no more than 10 µM throughout.

In the case of `O=c1cc(-c2ccc3[nH]nnc3c2)[nH]c2c(-c3cccnc3)cnn12`, the IC50 in assay [3], in assay [4] and in assay [5] was no more than 10 µM throughout.

Take `CCCNC(=O)c1cnn2c(=O)cc(-c3ccc4[nH]nnc4c3)[nH]c12`: the IC50 in assay [3], in assay [4] and in assay [5] was no more than 10 µM in each case.

Regarding `Cc1nn2c(=O)cc(-c3ccc4c(c3)OCO4)[nH]c2c1Cc1ccccn1`, the IC50 in assay [3], in assay [4] and in assay [5] was no more than 10 µM throughout.

For the compound `O=c1cc(-c2ccc3[nH]nnc3c2)[nH]c2c(-c3ccc(Cl)cc3)cnn12`, the IC50 in assay [3], in assay [4] and in assay [5] was no more than 10 µM in each case.

With `CCCNC(=O)c1c(N)nn2c(=O)cc(-c3ccc4[nH]nc(C)c4c3)[nH]c12`, the IC50 in assay [3], in assay [4] and in assay [5] was no more than 10 µM in each case.

Take `O=c1cc(-c2ccc(-c3ncco3)cc2)[nH]c2c(-c3ccccn3)cnn12`: the IC50 is no less than 10 µM in assay [3], no more than 10 µM in assay [4] and no more than 10 µM in assay [5].

The compound `COc1ccc(-c2c(Cc3ccccc3)nn3c(=O)cc(-c4ccccc4)[nH]c23)cc1` had an IC50 in assay [1] of no less than 10 µM.

In the case of `O=c1cc(-c2cc3nn[nH]c3cc2F)[nH]c2c(-c3ccccn3)cnn12`, the IC50 in assay [3], in assay [4] and in assay [5] was no more than 10 µM throughout.

For `CCCNC(=O)c1c(O)nn2c(=O)cc(-c3ccc4c(c3)OCO4)[nH]c12`, the half-maximal inhibitory concentration (IC50) in assay [3], in assay [4] and in assay [5] was no more than 10 µM each time.

Consider `COc1c(-c2cc(=O)n3ncc(-c4ccccn4)c3[nH]2)ccc2[nH]nnc12`, for which the IC50 in assay [3], in assay [4] and in assay [5] was no more than 10 µM each time.

For `COc1ccc(-c2cc(=O)n3nc(C)c(-c4ccccc4)c3[nH]2)cc1`, the IC50 in assay [1] and in assay [2] was no more than 10 µM each time.

In assay [1], `O=c1c2c([nH]c3c(-c4ccccc4)c(-c4ccccc4)nn13)CCC2` showed an IC50 of no less than 10 µM.

Take `Nc1nn2c(=O)cc(-c3ccc4[nH]nnc4c3)[nH]c2c1-c1ccc(Cl)cc1`: the IC50 in assay [3], in assay [4] and in assay [5] was no more than 10 µM throughout.

Regarding `CCCc1cc(=O)n2nc(Cc3ccccc3)c(-c3ccc(Cl)cc3)c2[nH]1`, the IC50 in assay [1] and in assay [2] was no less than 10 µM throughout.

As for `O=c1cc(-c2ccccc2)[nH]c2c(-c3ccc(Cl)cc3)c(Cc3ccccc3)nn12`, the IC50 in assay [1] and in assay [2] was no less than 10 µM each time.

With `CCCNC(=O)c1c(N)nn2c(=O)cc(-c3ccc4c(cnn4C)c3)[nH]c12`, the IC50 in assay [3], in assay [4] and in assay [5] was no more than 10 µM in each case.

With `Cc1nn2c(=O)c(C#N)c(-c3ccccc3)[nH]c2c1-c1ccccc1`, the IC50 in assay [1] was no less than 10 µM.

`COc1ccc(Cc2nn3c(=O)cc(-c4ccccc4)[nH]c3c2-c2ccccc2)cc1`: the IC50 in assay [1] and in assay [2] was no less than 10 µM in each case.

With `N#Cc1ccc(-c2cc(=O)n3ncc(-c4ccccn4)c3[nH]2)cc1`, the IC50 in assay [3] was no less than 10 µM; in assay [4] it was no more than 10 µM; in assay [5], no more than 10 µM.

Turning to `O=c1cc(-c2ccc([N+](=O)[O-])cc2)[nH]c2c(-c3ccc(Cl)cc3)c(Cc3ccccc3)nn12`, the IC50 in assay [1] and in assay [2] was no more than 10 µM in each case.

As for `Nc1nn2c(=O)cc(-c3ccc4[nH]nnc4c3)[nH]c2c1-c1ccccc1`, the IC50 in assay [3], in assay [4] and in assay [5] was no more than 10 µM each time.

The compound `Cc1cc(=O)n2nc(-c3ccc(Cl)cc3)cc2[nH]1` registered an IC50 in assay [1] of no more than 10 µM.

With `O=c1cc(Cc2ccccc2)[nH]c2c(-c3ccccc3)c(Cc3ccccc3)nn12`, the IC50 in assay [1] and in assay [2] was no less than 10 µM each time.

Turning to `Cc1nn2c(=O)cc(-c3ccc([N+](=O)[O-])cc3)[nH]c2c1-c1ccc(Cl)cc1`, the IC50 in assay [1] and in assay [2] was no more than 10 µM throughout.

Regarding `COc1c(-c2cc(=O)n3nc(C)c(-c4ccccn4)c3[nH]2)ccc2c1OCO2`, the half-inhibitory concentration (IC50) in assay [3], in assay [4] and in assay [5] was no more than 10 µM throughout.

Consider `Cc1nn2c(=O)cc(-c3ccccc3)[nH]c2c1-c1ccc(F)cc1`, for which the IC50 in assay [1] and in assay [2] was no less than 10 µM throughout.

In the case of `CCCNC(=O)c1c(N)nn2c(=O)cc(-c3ccc4[nH]ncc4c3)[nH]c12`, the IC50 in assay [3], in assay [4] and in assay [5] was no more than 10 µM each time.

In assay [1], `O=c1cc(-c2ccccc2)[nH]c2c(-c3ccccc3)c(Cc3ccccc3)nn12` had an IC50 of no less than 10 µM.

In the case of `COc1cc2[nH]nnc2cc1-c1cc(=O)n2nc(N)c(-c3ccccn3)c2[nH]1`, the IC50 in assay [3] was no less than 10 µM; in assay [4] it was no more than 10 µM; in assay [5], no more than 10 µM.

For `CCCNC(=O)c1c(N)nn2c(=O)cc(-c3ccc(Cl)cc3)[nH]c12`, the IC50 in assay [3], in assay [4] and in assay [5] was no more than 10 µM throughout.

`COCc1cc(=O)n2nc(Cc3ccccc3)c(-c3ccc(OC)cc3)c2[nH]1`: the IC50 in assay [1] and in assay [2] was no less than 10 µM in each case.

`O=c1cc(-c2ccc3[nH]nnc3c2)[nH]c2c(-c3ccccn3)c(O)nn12`: the IC50 in assay [3], in assay [4] and in assay [5] was no more than 10 µM throughout.

Take `COc1ccccc1-c1cc(=O)n2nc(C)c(-c3ccccc3)c2[nH]1`: the half-inhibitory concentration (IC50) in assay [1] and in assay [2] was no more than 10 µM throughout.

Turning to `COc1c(-c2cc(=O)n3nc(N)c(-c4ccccn4)c3[nH]2)ccc2c1OCO2`, the IC50 in assay [3], in assay [4] and in assay [5] was no more than 10 µM in each case.

As for `Cc1[nH]c2c(-c3ccc(Cl)cc3)cnn2c(=O)c1Cc1ccccc1`, the half-maximal inhibitory concentration (IC50) in assay [1] and in assay [2] was no more than 10 µM each time.

Turning to `CCCc1cc(=O)n2nc(C)c(-c3ccc(Cl)cc3)c2[nH]1`, the 50% inhibitory concentration (IC50) in assay [1] and in assay [2] was no less than 10 µM each time.

For `CC(=O)Nc1nn2c(=O)cc(-c3ccc4c(cnn4C)c3)[nH]c2c1-c1ccccn1`, the half-inhibitory concentration (IC50) in assay [3], in assay [4] and in assay [5] was no more than 10 µM in each case.

As for `CCc1nn2c(=O)cc(-c3ccc4[nH]nnc4c3)[nH]c2c1-c1ccccn1`, the IC50 in assay [3], in assay [4] and in assay [5] was no more than 10 µM each time.

Take `COc1c(-c2cc(=O)n3nc(O)c(-c4ccccn4)c3[nH]2)ccc2c1OCO2`: the IC50 in assay [3], in assay [4] and in assay [5] was no more than 10 µM each time.

For the compound `CCCNC(=O)c1c(N)nn2c(=O)cc(-c3ccc4[nH]nnc4c3)[nH]c12`, the IC50 in assay [3], in assay [4] and in assay [5] was no more than 10 µM each time.

`Cc1cc(=O)n2nc(-c3cccc(Br)c3)cc2[nH]1`: the IC50 in assay [1] was no more than 10 µM.

As to `O=c1cc(-c2ccccc2)[nH]c2c(-c3cccc4ccccc34)c(Cc3ccccc3)nn12`, the IC50 in assay [1] and in assay [2] was no less than 10 µM each time.

Regarding `Cc1nn2c(=O)cc(-c3ccccc3)[nH]c2c1-c1ccc(Cl)cc1`, the IC50 in assay [1] and in assay [2] was no more than 10 µM throughout.

Compound `COc1ccc(-c2c(C)nn3c(=O)cc(-c4ccccc4)[nH]c23)cc1` yielded an IC50 in assay [1] of no less than 10 µM.

For the origin of these results see ChEMBL document CHEMBL3714729, “Heterocyclic compounds for the inhibition of pask” (2012).
